Test results as given in article PMC1977928, “Chlorambucil-monoglutathionyl conjugate is sequestered by human alpha class glutathione S-transferases” (British Journal of Cancer, 1992).

Tests used:
Assay type in all cases: biochemical
GST P1-1 = target: T1, GST P1-1 (Homo sapiens, UniProt P09211); assay: inhibition of CDNB conjugation activity
T1 construct: gene GSTP1; homodimer purified from human kidney cytosol

GST M1a-1a = target: T2, GST M1a-1a (Homo sapiens, UniProt P09488); assay: inhibition of CDNB conjugation activity
T2 construct: gene GSTM1; homodimer purified from human liver cytosol
T2 sequence (P09488 2-218): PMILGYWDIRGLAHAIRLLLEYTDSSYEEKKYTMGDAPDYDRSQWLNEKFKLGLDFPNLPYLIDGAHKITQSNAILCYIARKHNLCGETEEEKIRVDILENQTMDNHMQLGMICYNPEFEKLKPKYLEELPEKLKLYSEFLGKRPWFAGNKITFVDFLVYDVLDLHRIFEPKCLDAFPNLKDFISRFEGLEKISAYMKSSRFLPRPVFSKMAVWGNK

GST A1-1 = target: T3, GST A1-1 (Homo sapiens, UniProt P08263); assay: inhibition of CDNB conjugation activity (Dixon and Hanes plots)
T3 construct: gene GSTA1; homodimer purified from human liver cytosol
T3 sequence (P08263 2-222): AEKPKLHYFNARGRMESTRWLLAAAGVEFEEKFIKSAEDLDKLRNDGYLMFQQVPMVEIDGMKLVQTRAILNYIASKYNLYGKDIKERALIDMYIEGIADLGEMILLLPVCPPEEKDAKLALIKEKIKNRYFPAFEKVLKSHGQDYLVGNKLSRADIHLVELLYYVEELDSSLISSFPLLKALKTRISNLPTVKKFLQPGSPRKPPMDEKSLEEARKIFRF
Text: inhibition of CDNB conjugation activity (Dixon and Hanes plots) on GST A1-1 | CHBSG was a pure competitive inhibitor of the activity of GSTs A1-1 and A2-2 towards 1-chloro-2,4-dinitrobenzene

GST A2-2 = target: T4, GST A2-2 (Homo sapiens, UniProt P09210); assay: as above
T4 construct: gene GSTA2; homodimer purified from human liver cytosol
T4 sequence (P09210 2-222): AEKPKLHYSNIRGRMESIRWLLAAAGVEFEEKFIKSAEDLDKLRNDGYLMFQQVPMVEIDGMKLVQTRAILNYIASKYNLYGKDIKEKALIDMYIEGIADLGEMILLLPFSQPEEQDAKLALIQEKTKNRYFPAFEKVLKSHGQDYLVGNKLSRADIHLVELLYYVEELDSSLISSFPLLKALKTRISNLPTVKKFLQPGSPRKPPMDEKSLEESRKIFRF

T1 sequence (P09211 2-210): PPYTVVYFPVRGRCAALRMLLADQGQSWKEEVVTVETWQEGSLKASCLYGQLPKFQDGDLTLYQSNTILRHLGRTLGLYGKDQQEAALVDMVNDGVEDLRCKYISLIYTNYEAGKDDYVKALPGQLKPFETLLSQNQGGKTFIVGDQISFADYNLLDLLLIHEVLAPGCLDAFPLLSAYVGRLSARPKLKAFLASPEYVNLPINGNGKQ

N[C@@H](CCC(=O)N[C@@H](CSCCN(CCCl)c1ccc(CCCC(=O)O)cc1)C(=O)NCC(=O)O)C(=O)O [CHBSG]
inhibition of CDNB conjugation activity (GST P1-1): > 10 µM
inhibition of CDNB conjugation activity (GST M1a-1a): > 10 µM
Ki (GST A1-1): 1.3 µM
Ki (GST A2-2): 1.2 µM
